Measured values from patent US8389557B2, “Triazole derivatives useful as Axl inhibitors” (Rigel Pharmaceuticals, Inc., priority 2005, dated 2013).

molecular target: T1, Axl (Homo sapiens, UniProt P30530); assay: Phospho-Akt in-cell Western assay (inhibition of Axl activity); assay type: cell-based; conditions: Table 2; Hela cells, Axl antibody cross-linking stimulation, phospho-Akt chemiluminescence
T1 construct: endogenous in cells; host or cells: HeLa cells
T1 sequence (P30530 26-894): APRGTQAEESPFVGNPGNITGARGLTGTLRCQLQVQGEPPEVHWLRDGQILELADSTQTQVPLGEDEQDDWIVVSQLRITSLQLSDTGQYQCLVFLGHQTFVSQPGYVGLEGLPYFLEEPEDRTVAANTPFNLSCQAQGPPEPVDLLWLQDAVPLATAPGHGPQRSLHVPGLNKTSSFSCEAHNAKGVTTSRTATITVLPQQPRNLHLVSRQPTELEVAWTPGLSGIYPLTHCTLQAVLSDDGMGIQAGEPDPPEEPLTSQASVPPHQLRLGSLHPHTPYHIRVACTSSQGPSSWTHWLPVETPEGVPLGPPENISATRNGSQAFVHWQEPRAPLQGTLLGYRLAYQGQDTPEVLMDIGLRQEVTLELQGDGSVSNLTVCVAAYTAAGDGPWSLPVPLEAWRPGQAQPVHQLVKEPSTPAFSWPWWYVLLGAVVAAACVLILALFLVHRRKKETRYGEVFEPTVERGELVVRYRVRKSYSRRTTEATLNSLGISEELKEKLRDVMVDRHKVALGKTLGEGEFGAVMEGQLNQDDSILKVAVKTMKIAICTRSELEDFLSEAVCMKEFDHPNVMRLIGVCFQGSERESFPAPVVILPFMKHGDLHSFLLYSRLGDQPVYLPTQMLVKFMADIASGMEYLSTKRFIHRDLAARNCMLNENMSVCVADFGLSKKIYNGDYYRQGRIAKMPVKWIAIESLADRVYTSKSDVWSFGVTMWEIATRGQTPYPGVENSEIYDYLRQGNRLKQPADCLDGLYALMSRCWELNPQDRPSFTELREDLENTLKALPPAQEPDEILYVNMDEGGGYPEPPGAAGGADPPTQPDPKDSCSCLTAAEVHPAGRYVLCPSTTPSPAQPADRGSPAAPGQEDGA
Method in brief: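 HeLa cells on poly-L-lysine, starved 24 h in 0.5% FCS DMEM with Axl/Fc 500 ng/mL, pre-treated with compound 1 h at 37° C. Axl stimulated 5 min by anti-Axl/anti-mouse antibody cross-linking. Fixed cells probed with anti-phospho-Akt and HRP secondary, chemiluminescence read.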

Row | IC50 | Structure (SMILES)
1 | > 20 µM | Cc1cc(C(=O)n2nc(N)nc2Nc2ccc3c(c2)OCCO3)ccc1F [compound 241, 3-amino-5-(1,4-benzodioxan-6-yl)amino-1-[(4-fluoro-3-methyl)phenyl]carbonyl-1H-1,2,4-triazole]

same assay, conditions: Table 3; Hela cells, Axl antibody cross-linking stimulation, phospho-Akt chemiluminescence

Row | IC50 | Structure (SMILES)
2 | > 20 µM | CC(=O)n1nc(Nc2ccc3c(c2)OCCO3)nc1N [compound 261, 1-Acetyl-5-amino-3-(1,4-benzodioxan-6-yl)amino-1H-1,2,4-triazole]
3 | < 1 µM | Nc1nc(Nc2ccc(OCCN3CCOCC3)cc2)nn1C(=O)c1ccc2cc[nH]c2c1 [compound 265, 5-amino-1-(1H-indol-6-yl)carbonyl-3-[4-[2-(morpholin-4-yl)ethoxy]phenylamino]-1H-1,2,4-triazole]
4 | 1 to 10 µM | Nc1nc(Nc2ccc(OCCN3CCCC3)cc2)nn1C(=O)c1ccc2ncsc2c1 [compound 271, 5-amino-1-(benzo[d]thiazol-6-yl)carbonyl-3-[4-[2-(pyrrolidin-1-yl)ethoxy]phenylamino]-1H-1,2,4-triazole]

same assay, conditions: Table 5; Hela cells, Axl antibody cross-linking stimulation, phospho-Akt chemiluminescence

Row | IC50 | Structure (SMILES)
5 | 1 to 10 µM | Cc1cccc(C(=O)n2nc(Nc3ccc4[nH]ccc4c3)nc2N)c1 [compound 252, 5-amino-3-(1H-indol-5-yl)amino-1-(3-methylphenyl)carbonyl-1H-1,2,4-triazole]
6 | 1 to 10 µM | Cc1cccc(C(=O)n2nc(Nc3ccc4cn(C)nc4c3)nc2N)c1 [compound 253, 5-amino-3-(1H-2-methyl-indazol-6-yl)amino-1-(3-methylphenyl)carbonyl-1H-1,2,4-triazole]

Continued, compound first:

Row | Structure (SMILES) | IC50
7 | Cc1cccc(C(=O)n2nc(Nc3ccc4ncsc4c3)nc2N)c1 [compound 250, 5-amino-3-(benzothiazol-6-yl)amino-1-(3-methylphenyl)carbonyl-1H-1,2,4-triazole] | 1 to 10 µM
8 | Cc1cccc(C(=O)n2nc(Nc3ccc4ncccc4c3)nc2N)c1 [compound 251, 5-amino-1-(3-methylphenyl)carbonyl-3-(6-quinolinyl)amino-1H-1,2,4-triazole] | 1 to 10 µM
9 | Cc1cccc(C(=O)n2nc(Nc3ccc4cnn(C)c4c3)nc2N)c1 [compound 254, 5-amino-3-(1H-1-methyl-indazol-6-yl)amino-1-(3-methylphenyl)carbonyl-1H-1,2,4-triazole] | > 20 µM
10 | Cc1cccc(C(=O)n2nc(Nc3ccc4[nH]c(C)cc4c3)nc2N)c1 [compound 255, 5-amino-3-(1H-2-methyl-indol-5-yl)amino-1-(3-methylphenyl)carbonyl-1H-1,2,4-triazole] | 1 to 10 µM
11 | Cc1cccc(C(=O)n2nc(Nc3nc4ccccc4s3)nc2N)c1 [compound 256, 5-amino-3-(benzothiazol-2-yl)amino-1-(3-methylphenyl)carbonyl-1H-1,2,4-triazole] | > 20 µM
12 | Cc1cccc(C(=O)n2nc(Nc3ccc4sncc4c3)nc2N)c1 [compound 259, 5-amino-3-(1,2-benzisothiazol-5-yl)amino-1-(3-methylphenyl)carbonyl-1H-1,2,4-triazole] | > 20 µM
13 | Cc1cccc(C(=O)n2nc(Nc3ccc4snc(C)c4c3)nc2N)c1 [compound 260, 5-amino-3-(3-methyl-1,2-benzisothiazol-5-yl)amino-1-(3-methylphenyl)carbonyl-1H-1,2,4-triazole] | > 20 µM

same assay, conditions: inhibition of Axl activity, Table 1

Row | IC50 | Structure (SMILES)
14 | > 20 µM | Nc1nc(Nc2ccc3c(c2)OCCO3)nn1C(=O)c1ccc([N+](=O)[O-])cc1 [compound 240, 5-amino-3-(1,4-benzodioxan-6-yl)amino-1-(4-nitrophenyl)carbonyl-1H-1,2,4-triazole]
15 | > 20 µM | Cc1cc(C(=O)n2nc(Nc3ccc4c(c3)OCCO4)nc2N)ccc1F [compound 242, 5-amino-3-(1,4-benzodioxan-6-yl)amino-1-[(4-fluoro-3-methyl)phenyl]carbonyl-1H-1,2,4-triazole]
16 | 1 to 10 µM | Nc1ccc(C(=O)n2nc(Nc3ccc4c(c3)OCCO4)nc2N)cc1 [compound 243, 5-amino-1-(4-aminophenyl)carbonyl-3-(1,4-benzodioxan-6-yl)amino-1H-1,2,4-triazole]
17 | > 20 µM | Nc1nc(Nc2ccc3c(c2)OCCO3)nn1C(=O)c1ccc(C(F)(F)F)cc1 [compound 244, 5-amino-3-(1,4-benzodioxan-6-yl)amino-1-[(4-trifluoromethyl)phenyl]carbonyl-1H-1,2,4-triazole]
18 | > 20 µM | N#Cc1ccc(C(=O)n2nc(Nc3ccc4c(c3)OCCO4)nc2N)cc1 [compound 245, 5-amino-1-(4-cyanophenyl)carbonyl-3-(1,4-benzodioxan-6-yl)amino-1H-1,2,4-triazole]
19 | 1 to 10 µM | CC(=O)Nc1ccc(C(=O)n2nc(Nc3ccc4c(c3)OCCO4)nc2N)cc1 [compound 246, 1-[(4-Acetylamino)phenyl]carbonyl-5-amino-3-(1,4-benzodioxan-6-yl)-amino-1H-1,2,4-triazole]
20 | 1 to 10 µM | CN(C)c1ccc(C(=O)n2nc(Nc3ccc4c(c3)OCCO4)nc2N)cc1 [compound 247, 5-amino-1-[(4-dimethylamino)phenyl]carbonyl-3-(1,4-benzodioxan-6-yl)amino-1H-1,2,4-triazole]
21 | > 20 µM | CS(=O)(=O)c1ccc(C(=O)n2nc(Nc3ccc4c(c3)OCCO4)nc2N)cc1 [compound 248, 5-amino-3-(1,4-benzodioxan-6-yl)amino-1-[(4-methylsulfonyl)phenyl]carbonyl-1H-1,2,4-triazole]
22 | > 20 µM | Cc1ccc(C(=O)n2nc(Nc3ccc4c(c3)OCCO4)nc2N)cc1Cl [compound 249, 5-amino-1-[(3-chloro-4-methyl)phenyl]carbonyl-3-(1,4-benzodioxan-6-yl)-amino-1H-1,2,4-triazole]
23 | 1 to 10 µM | COc1ccc(C(=O)n2nc(Nc3ccc4c(c3)OCCO4)nc2N)cc1C [compound 257, 5-amino-3-(1,4-benzodioxan-6-yl)amino-1-(3-methyl-4-methoxy)phenylcarbonyl-1H-1,2,4-triazole]
24 | 1 to 10 µM | Cc1cc(C(=O)n2nc(Nc3ccc4c(c3)OCCO4)nc2N)ccc1OC(C)C [compound 258, 5-amino-3-(1,4-benzodioxan-6-yl)amino-1-(3-methyl-4-iso-propoxy)phenylcarbonyl-1H-1,2,4-triazole]

same assay, conditions: inhibition of Axl activity, phospho-Akt in-cell Western assay; Table 1

Row | IC50 | Structure (SMILES)
25 | < 1 µM | Nc1nc(Nc2ccc(OCCN3CCCC3)c(F)c2)nn1C(=O)c1ccc(N2CCOCC2)cc1 [compound 262, 5-amino-3-[4-[2-(pyrrolidin-1-yl)ethoxy]-3-fluorophenyl]amino-1-[4-(morpholin-4-yl)phenyl]carbonyl-1H-1,2,4-triazole]
26 | 1 to 10 µM | CC(C)(C)c1ccc(C(=O)n2nc(Nc3cccc(-c4cnco4)c3)nc2N)cc1 [compound 263, 5-amino-1-(4-(tert-butyl)phenyl)carbonyl-3-[3-(1,3-oxazol-5-yl)phenylamino]-1H-1,2,4-triazole]
27 | < 1 µM | CC(C)(C)c1ccc(C(=O)n2nc(Nc3ccc(OCCN4CCOCC4)cc3)nc2N)cc1 [compound 266, 5-amino-1-(4-(tert-butyl)phenyl)carbonyl-3-[4-[2-(morpholin-4-yl)ethoxy]phenylamino]-1H-1,2,4-triazole]
28 | < 1 µM | Nc1nc(Nc2ccc(OCCN3CCCC3)cc2)nn1C(=O)c1ccc(-n2ccnc2)cc1 [compound 268, 5-amino-1-(4-(imidazol-1-yl)phenyl)carbonyl-3-[4-[2-(pyrrolidin-1-yl)ethoxy]phenylamino]-1H-1,2,4-triazole]
29 | < 1 µM | Nc1nc(Nc2ccc(OCCN3CCCC3)cc2)nn1C(=O)c1ccc(Oc2ccccc2)cc1 [compound 269, 5-amino-1-(4-(phenoxy)phenyl)carbonyl-3-[4-[2-(pyrrolidin-1-yl)ethoxy]phenylamino]-1H-1,2,4-triazole]

Row | Structure (SMILES) | IC50
30 | CC(C)(C)Oc1ccc(C(=O)n2nc(Nc3cccc(-c4cnco4)c3)nc2N)cc1 [compound 264, 5-amino-1-(4-(tert-butoxy)phenyl)carbonyl-3-[3-(1,3-oxazol-5-yl)phenylamino]-1H-1,2,4-triazole] | 1 to 10 µM
31 | CC(C)(C)Oc1ccc(C(=O)n2nc(Nc3ccc(OCCN4CCOCC4)cc3)nc2N)cc1 [compound 267, 5-amino-1-(4-(tert-butoxy)phenyl)carbonyl-3-[4-[2-(morpholin-4-yl)ethoxy]phenylamino]-1H-1,2,4-triazole] | < 1 µM
32 | CC(C)(C)OC(=O)Nc1ccc(C(=O)n2nc(Nc3ccc(OCCN4CCCC4)cc3)nc2N)cc1 [compound 270, 5-amino-1-(4-(tert-butoxycarbonylamino)phenyl)carbonyl-3-[4-[2-(pyrrolidin-1-yl)ethoxy]phenylamino]-1H-1,2,4-triazole] | < 1 µM
